Measurements taken from patent publication US5686417A, “Peptide T and related peptides in the treatment of HTLV-1 myelopathy and multiple sclerosis” (Reed MacFadden, Ltd., priority 1995, dated 1997).

Legend:
[1] = tested on: multiple sclerosis patients; assay: case treatments of multiple sclerosis (Examples 2-5); format: in vivo, human
Experimental: A person was diagnosed as having MS after presenting with weakness, loss of balance, double vision, and paraesthesia in their right arm. They were treated with prednisone and later with physiotherapy. […] Tone was increased in both lower limbs and they had bilateral ankle clonus. Deep tendon reflexes were 2+ in the arms, 3+ in both knees and ankles and the planter responses were extensor.
They were started on 10 milligram subcutaneous injections of Peptide T daily. […] Their frequency of nocturia was reduced, fine motor control improved, stuttering decreased, their legs were less spastic and they could stand with minimal support.
A person was diagnosed with optic neuritis secondary to multiple sclerosis after presenting with numbness, impaired motor function, and blurred vision (20/300 bilaterally). Their somatic neurological examination was within normal limits. Minor episodes of numbness and impaired speech, balance and co-ordination had occurred over 6 months, as well as headache and loss of vision.
Peptide T therapy was started.
A person with their first multiple sclerosis episode had optic neuritis and complete blindness in the right eye for 2 weeks, numbness in their right leg and then both legs. Their symptoms worsened. […] They had worsening of their ataxia and blurred vision. They were given prednisone 80 milligrams per day. […] The patient complained of oscillopsia. […] Findings were typical of demyelination consistent with MS. […] The tone was increased in their lower limbs and they had non-sustained ankle clonus bilaterally. Their knee jerk was increased on the right compared to the left. Plantar responses were both upgoing. They had decreased position, vibration, light touch and cold sensation in the feet compared to the hands.
About 2 months later the patient was started on Peptide T 10 milligrams subcutaneously daily. […] They experienced improved feelings in their fingers, fine movements of their hands and improved cognitive function.
A person with a history of dizziness, ataxia, episodes of vertigo, impairment of motor function and generalized weakness of the legs was treated with dilantin and admitted to hospital. […] They were reassessed about 2 years later for episodes of dizziness, and complaints of leg spasms. […] Planter response was downgoing and they had upwards gaze vertical nystagmus as previously noted.

[2] = in vivo; cited from earlier work
[3] = tested on: rat spinal cord; conditions: spinal administration; cited from earlier work
[4] = tested on: mouse fetal hippocampal neurons; conditions: mouse hippocampal neuronal culture; cited from earlier work
[5] = tested on: protein kinase C; conditions: cited from earlier work

**Q.** For `NCC(CC(=O)O)c1ccc(Cl)cc1` (centres unmarked) [Lioresal (Baclofen), Baclofen], which “response to earlier treatment” value ([1]; Example 2, before Peptide T) is on record?
**A.** some improvement

**Q.** Which “exit from the brain” value [2] does the source give for `C[C@@H](N)C(=O)N[C@@H](CO)C(=O)N[C@H](C(=O)N[C@H](C(=O)N[C@H](C(=O)N[C@@H](CC(N)=O)C(=O)N[C@@H](Cc1ccc(O)cc1)C(=O)N[C@H](C(N)=O)[C@@H](C)O)[C@@H](C)O)[C@@H](C)O)[C@@H](C)O` [Peptide T, D-Ala-Ser-Thr-Thr-Thr-Asn-Tyr-Thr- Amide] here?
**A.** diffusion only

**Q.** For `C[C@]12C=CC(=O)C=C1CC[C@@H]1[C@@H]2C(=O)C[C@@]2(C)[C@H]1CC[C@]2(O)C(=O)CO` [prednisone], which symptomatic response ([1]; Example 4, 150 mg daily, while off Peptide T) is on record?
**A.** minimal symptomatic improvement

**Q.** And the “ataxia and some visual problems” value ([1]; Example 4, 80 milligrams per day)?
**A.** seemed to improve

**Q.** What about the response to treatment ([1]; Example 4, first course, dose not stated) of the same compound?
**A.** some improvement

**Q.** What does the source list for vasoactive intestinal peptide [VIP]?
**A.** analgesia, fail-flick latency test and tail-shock induced vocalization test [3]: produced analgesia; effect on gp120-induced neurotoxicity [4]: completely eliminated; cellular effects via protein kinase C [5]: regulation of protein kinase C
